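In this assay, cells in 96-well plates receive the compound at five concentrations for 48 hours. Endpoints are linearly interpolated between the surrounding concentrations. GI50 marks 50% less growth.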 The source made the active and inactive calls. Rule as the data show it: active = GI50 up to about 1.1 µM and inactive = higher.

Test systems include Malme-3M; OVCAR-3; HCT-116; HCC 2998; OVCAR-8; IGROV-1; RPMI-8226; KM12; UO-31; COLO 205; HOP-62; UACC-257; SK-MEL-28; HOP-92; HT-29; RXF 393; HCT-15.
What all share (assay): DTP human tumour cell line panel, 48 h

Broadly, the GI50 is the concentration giving 50% growth inhibition. Turning to `Cc1cc(O)c2c(c1)OC1(C)CCC3C(C)(C)CCCC34COC2C14` (stereo not given), the GI50 was 13.3 µM (inactive) in the assay on Malme-3M; 13.4 µM (inactive) in the assay with OVCAR-3; 14.3 µM (inactive) in the assay on HCT-116; 14.7 µM (inactive) in the assay on HCC 2998; 16.7 µM (inactive) in the assay with OVCAR-8; 19.7 µM (inactive) in the assay with IGROV-1. Besides, the GI50 was > 10 µM (inactive) in the assay on RPMI-8226; 16.8 µM (inactive) in the assay on KM12; 16.7 µM (inactive) in the assay on UO-31; 14.4 µM (inactive) in the assay with COLO 205; 14.1 µM (inactive) with HOP-62; 15.5 µM (inactive) in the assay on UACC-257.

Regarding `Cn1cnc([N+](=O)[O-])c1Sc1nccn1-c1ccccc1`, the GI50 was 17.5 µM (inactive) in the assay on Malme-3M; 37.8 µM (inactive) with SK-MEL-28; 22.5 µM (inactive) with HOP-92; 50.5 µM (inactive) with OVCAR-3; 38 µM (inactive) in the assay with HCT-116; > 100 µM (inactive) in the assay with HCC 2998. In addition, the GI50 in the assay with OVCAR-8 was 43.1 µM (inactive); with HT-29, 61.1 µM (inactive); in the assay on IGROV-1, 43.1 µM (inactive); in the assay with RPMI-8226 it was 51.3 µM (inactive); with KM12, > 100 µM (inactive); in the assay on UO-31, 22.3 µM (inactive). The figures for the GI50 in the assay on COLO 205, with HOP-62 and in the assay on UACC-257 were 33.9 µM (inactive), > 100 µM (inactive) and 37.6 µM (inactive), respectively.

Consider `Cc1cc2nc3c(C(OC4OC(CO)C(O)C(O)C4O)C(O)CO)nn(-c4ccccc4)c3nc2cc1C` (stereo not given), for which the GI50 in the assay on Malme-3M, in the assay on SK-MEL-28, in the assay with RXF 393, with OVCAR-3, in the assay on HCT-116 and in the assay with HCC 2998 was > 100 µM (inactive) each time. For the same molecule, the GI50 is > 100 µM (inactive) with OVCAR-8; over 100 µM with HCT-15; > 100 µM (inactive) with HT-29; > 100 µM (inactive) in the assay with RPMI-8226; > 100 µM (inactive) in the assay with KM12; > 100 µM (inactive) in the assay with UO-31. In addition, the GI50 in the assay with HOP-62 and in the assay on UACC-257 was > 100 µM (inactive) in each case.

As for `Cc1ccnc(NS(=O)(=O)c2ccc(NC3=CC(=O)C(=O)c4ccccc43)cc2)n1`, the GI50 in the assay with Malme-3M, in the assay with SK-MEL-28, with RXF 393, in the assay with OVCAR-3, with HCT-116 and with HCC 2998 was > 100 µM (inactive) in each case. Also, the GI50 in the assay on OVCAR-8 is > 100 µM (inactive); with HCT-15, over 100 µM; in the assay with HT-29, > 100 µM (inactive); in the assay with IGROV-1, > 100 µM (inactive); in the assay on KM12, > 100 µM (inactive); with UO-31, > 100 µM (inactive). Besides, the GI50 in the assay on COLO 205, with HOP-62 and with UACC-257 was > 100 µM (inactive) in each case.

Consider `CCC(C)(C)NS(=O)(=O)c1ccccc1`, for which the GI50 with Malme-3M, with SK-MEL-28, in the assay with RXF 393, with OVCAR-3, in the assay on HCT-116 and in the assay with HCC 2998 was > 100 µM (inactive) each time. The GI50 in the assay with OVCAR-8 is > 100 µM (inactive); in the assay on HCT-15 it was over 100 µM; in the assay on HT-29, > 100 µM (inactive); in the assay with IGROV-1 it was > 100 µM (inactive); with RPMI-8226, > 100 µM (inactive); with KM12, > 100 µM (inactive). For the same molecule, the GI50 in the assay on UO-31, with HOP-62 and with UACC-257 was > 100 µM (inactive) each time.

With `N#C/C(c1nc2ccccc2[nH]1)=c1\s/c(=C/c2ccccc2)c(=O)n1-c1ccccc1`, the GI50 with Malme-3M, with SK-MEL-28, in the assay on HOP-92, in the assay on OVCAR-3, in the assay with HCT-116 and with HCC 2998 was > 100 µM (inactive) in each case. Further, the GI50 in the assay with OVCAR-8 is > 100 µM (inactive); in the assay on HCT-15 it was over 100 µM; in the assay on IGROV-1, 2.9 µM (inactive); with RPMI-8226, > 100 µM (inactive); in the assay with KM12, > 100 µM (inactive); in the assay on UO-31 it was > 100 µM (inactive). Further, the GI50 in the assay with COLO 205, with HOP-62 and in the assay on UACC-257 was > 100 µM (inactive) throughout.

Regarding `O=C(CSc1nnc(Cc2ccccc2)o1)Nc1ccccc1Cl`, the GI50 in the assay with Malme-3M, in the assay with SK-MEL-28, in the assay with OVCAR-3, in the assay on HCT-116, in the assay with HCC 2998 and with OVCAR-8 was > 100 µM (inactive) throughout. Besides, the 50% growth inhibitory concentration (GI50) was over 100 µM with HCT-15; > 100 µM (inactive) in the assay on HT-29; > 100 µM (inactive) in the assay on IGROV-1; > 100 µM (inactive) with RPMI-8226; > 100 µM (inactive) with KM12; > 100 µM (inactive) in the assay with UO-31. The GI50 with COLO 205 and in the assay on HOP-62 was > 100 µM (inactive) in each case.

Take `C[Si](C)(C)OC1(C#N)C2C3CC4C2C(=O)C2C4C3C21` (stereo not given): the GI50 in the assay on Malme-3M, with SK-MEL-28, with RXF 393, with OVCAR-3, in the assay with HCT-116 and with HCC 2998 was > 100 µM (inactive) in each case. The GI50 in the assay with OVCAR-8 is > 100 µM (inactive); with HCT-15 it was over 100 µM; in the assay with IGROV-1, > 100 µM (inactive); with RPMI-8226, > 100 µM (inactive); in the assay with KM12, > 100 µM (inactive); in the assay on UO-31 it was > 100 µM (inactive). Further, the GI50 in the assay with COLO 205, with HOP-62 and with UACC-257 was > 100 µM (inactive) throughout.

Regarding `N#C/N=C(\NCCc1c[nH]c2ccccc12)NCc1ccccc1`, the GI50 was 80.7 µM (inactive) with SK-MEL-28; > 100 µM (inactive) with RXF 393; 42.8 µM (inactive) in the assay with OVCAR-3; 50.9 µM (inactive) with HCT-116; 32.5 µM (inactive) with HCC 2998; > 100 µM (inactive) in the assay with OVCAR-8. The GI50 is 49.4 µM in the assay with HCT-15; 37.8 µM (inactive) in the assay on HT-29; > 100 µM (inactive) in the assay on IGROV-1; 42.6 µM (inactive) in the assay on RPMI-8226; 36.4 µM (inactive) in the assay on KM12; 20.5 µM (inactive) in the assay with UO-31. Also, the GI50 with COLO 205 is 61 µM (inactive); in the assay with HOP-62 it was > 100 µM (inactive); in the assay on UACC-257, 37 µM (inactive).

For the molecule `CSC1(C)CC2C(CC1N1CCOCC1)C2(C)C` (stereo not given), the GI50 with Malme-3M was > 100 µM (inactive); in the assay with SK-MEL-28, > 100 µM (inactive); with HOP-92 it was 78.2 µM (inactive); with OVCAR-3 it was > 100 µM (inactive); with HCT-116, > 100 µM (inactive); in the assay with HCC 2998, > 100 µM (inactive). Also, the GI50 in the assay with OVCAR-8 is > 100 µM (inactive); with HCT-15, over 100 µM; in the assay with HT-29, > 100 µM (inactive); in the assay on IGROV-1, > 100 µM (inactive); with RPMI-8226 it was > 100 µM (inactive); in the assay with KM12, > 100 µM (inactive). For the same molecule, the GI50 in the assay with UO-31, with COLO 205 and in the assay on UACC-257 was > 100 µM (inactive) throughout.

The values are drawn from ChEMBL document CHEMBL1201862, “PubChem BioAssay data set” (2004).
